In the METLIN SMRT retention time set (Domingo-Almenara et al. 2019):

Assay: gradient 5% acetonitrile 3 min, to 50% in 2 min, to 85% in 15 min, held 3 min, 100 µL/min
Details: column: Zorbax Extend-C18 2.1 x 50 mm; eluents: water / acetonitrile, 0.1% formic acid
Outline: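 Retention times of pure standards were taken from adduct peaks that were selected by computer and manually inspected. Over 3 months, mixtures of ~100 molecules were run by HPLC–quadrupole time-of-flight mass spectrometry in positive and negative ionization mode. The Zorbax Extend-C18 column (2.1 × 50 mm, 1.8 μm) ran at 100 μL/min in water and acetonitrile, each containing 0.1% formic acid, with 40 μL dead volume and 900 μL dwell volume.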

RP-LC retention time [s] | Compound
740 | Cc1ccc(NC(=O)Cn2ccc3sccc3c2=O)cc1C
865 | CC(C)Oc1ccc(CNC(=O)CN2CCN(Cc3ccc(F)cc3)C2=O)cc1
735 | CCc1noc(NC(C)=O)c1-c1ccc(OC)c(S(=O)(=O)Nc2ccc(C#N)cc2)c1
645 | O=C(C1CCN(S(=O)(=O)N2CCOCC2)CC1)N1CCN(Cc2noc3ccccc23)CC1
677 | COc1cc(OC)cc(C(=O)N2CCC(c3cc(N)on3)CC2)c1
608 | CC(C)(C)c1ccc(OCC(O)CN2CCN(C(=O)c3ccccc3)CC2)cc1 (centres undefined)
620 | Cc1c(Br)cncc1C(=O)O
810 | O=C(COc1ccc(F)cc1)N1CCC2(CC1)NC(=O)N(Cc1ccc(Cl)cc1)C2=O
1060 | Clc1ccc(-c2nc3cnccn3c2Nc2cccc(Cl)c2)cc1
811 | O=C(NCc1csc(C2CCN(S(=O)(=O)c3ccccc3F)CC2)n1)C1CCC1
1090 | COC(=O)c1ccccc1Nc1c(-c2ccccc2)nc2cnc(Br)cn12
816 | COc1ccc(-c2cn3c(CC(=O)N4CCN(c5ccc(Cl)cc5)CC4)csc3n2)cc1OC
559 | CC(=O)N1CCCc2cc(S(N)(=O)=O)ccc21
866 | O=C(NCc1ccccc1)C1CCN(S(=O)(=O)c2cc(C(=O)N3CCCCCC3)cs2)CC1
860 | O=C1CC(c2nc(-c3ccccc3F)no2)CN1c1ccc2c(c1)OCCO2 (centres undefined)
693 | COc1ccccc1OCc1nc(-c2ccc3ncn(C)c3c2)no1
842 | Cc1cc(C)cc(N2CCC(NC(=O)c3cccs3)C2=O)c1 (centres undefined)
925 | CCCS(=O)(=O)N1CC(=O)N(c2ccc(F)cc2C)C(C)(C(=O)NC2CCCCC2)C1 (centres undefined)
654 | Cc1cnc(C2CCC2)n1CCNC(=O)C1(c2ccccc2)CC1
652 | Cc1cc(C)cc(S(=O)(=O)N2CCN(CCc3cn(C)c4ncccc34)CC2)c1
966 | O=C1CC(c2noc(CCc3ccccc3)n2)CN1c1ccc(F)cc1 (centres undefined)
734 | O=C(Nc1cc(-c2cccs2)nn1CCO)C1(c2ccccc2)CCOCC1

RP-LC retention time [s] | Compound
761 | COCCCNC(=O)C1c2ccccc2C(=O)N1CCCc1ccccc1 (centres undefined)
834 | CCS(=O)(=O)N1CC(=O)N(c2ccc(C)cc2)C(C)(C(=O)NCc2ccc(F)cc2)C1 (centres undefined)
1020 | CC(C)(C)c1ccc(C(=O)Nc2cc(-c3ccccn3)no2)cc1
814 | CN(Cc1ccccc1)C(=O)CCNc1c(-c2cccc(F)c2)nc2cnccn12
753 | O=C(Nc1ccc2c(c1)OCO2)C1CCN(C(=O)c2cccc(F)c2)CC1
896 | O=C(Nc1ccccc1)C1CCN(S(=O)(=O)c2cc(C(=O)N3CCCCCC3)cs2)CC1
737 | COc1cccc(S(=O)(=O)N2CCC3(CC2)N(c2ccccc2)C(=O)CS3=O)c1 (centres undefined)
688 | O=C(Nc1ccc(F)cc1)Nc1ccc2nc3n(c(=O)c2c1)CCC3
688 | O=C(Nc1nccs1)C1CCCN(S(=O)(=O)c2c[nH]c(C(=O)N3CCCC3)c2)C1 (centres undefined)
615 | CC(C)CNC(=O)CCC1CCN(c2cc(NC3CC3)ncn2)CC1
739 | Cc1ccc(NC(=O)Cn2nc3c(N4CCCCCC4)nccn3c2=O)cc1F
801 | CCCCc1ccc(NC(=O)Cn2cnc3nc(N4CCCC(C(=O)NCC)C4)sc3c2=O)cc1 (centres undefined)
875 | CS(=O)(=O)N1CC(C(=O)Nc2ccccc2)C2(CCCCC2)C1 (centres undefined)
1160 | Cc1cccc(S(=O)(=O)N2CCc3nc(-c4ccccc4)ncc3C2)c1C
754 | COc1ccc(OC)c(CNC(=O)C2CCN(c3ncnc4c3oc3ccccc34)CC2)c1
561 | CCn1c(C2CCN(S(=O)(=O)Cc3ccc(F)cc3Cl)C2)nc2ccncc21 (centres undefined)
618 | CCC(C(=O)NCCN(C)C)n1c2ccccc2c2cnn(C)c(=O)c21 (centres undefined)
659 | COc1cc(C(=O)N(Cc2ccc(N(C)C)cc2)CC2CCCO2)cc(OC)c1OC (centres undefined)
965 | O=C(CSc1cc(-n2cccn2)ncn1)Nc1cccc(Cl)c1F
790 | COc1ccc(NC(=O)Cn2nc3c(Oc4ccccc4C)nccn3c2=O)cc1
806 | Cc1ccc(NS(=O)(=O)c2cc(-c3[nH]ncc3C(=O)N3CCCCC3)oc2C)c(F)c1
575 | Cc1ncsc1CN1CC(n2cc(C(=O)NCC3CC3)nn2)C1

RP-LC retention time [s] | Compound
637 | COc1ccccc1N1CCN(CCCNc2cc(=O)n(C)c(=O)n2C)CC1
847 | CCCNC(=O)c1cn(-c2ccc(-c3nc(C(C)C)no3)cn2)cn1
693 | Clc1ccc(CNc2nnc(N3CCOCC3)c3ccccc23)cc1
858 | NS(=O)(=O)c1cccnc1Nc1cc(F)cc(F)c1
863 | Cc1ccc(S(=O)(=O)N2CCC(n3c(-c4ccoc4)nc4cccnc43)C2)cc1 (centres undefined)
1060 | O=S(=O)(Nc1ccc(F)cc1)c1cccnc1Nc1cccc(F)c1
862 | CCSc1ccccc1C(=O)NCCS(=O)(=O)N1CCc2ccccc2C1
970 | O=C(OCc1nc2ccccc2s1)c1ccc([N+](=O)[O-])s1
754 | CCN1CCCn2cc(S(=O)(=O)Nc3ccc(C)c(F)c3)cc2C1=O
874 | O=C(CSc1nnc2c3sc(N4CCCC4)nc3ncn12)Nc1cccc(Cl)c1
572 | Cc1ncoc1C(=O)N1CCOc2ccc(N(C)C)cc2C1
788 | COc1ccccc1OCCC1CCN(C(=O)CCS(=O)(=O)c2ccc3c(c2)CCN3C(C)=O)C1 (centres undefined)
727 | COc1ccc(-c2nc3cc(C)ccn3c2NC(=O)c2ccc(Br)cc2)cc1
803 | COc1ccccc1-c1cc(C(=O)N2CCN(c3ncccn3)CC2)c2ccccc2n1
780 | c1cc2c(cc1-c1noc(CCC3CCCC3)n1)nnn2CCN1CCOCC1
974 | COc1ccc(-c2cc3nn(CC(=O)Nc4ccc(Cl)cc4)c(=O)n3c(C)n2)cc1
654 | Cc1csc(-c2cc(S(=O)(=O)N3CCN(C)CC3)cn2CC(=O)N2CCCCC2)n1
580 | CCOc1ccc2nc(NC3=NCN(Cc4cccnc4)CN3)nc(C)c2c1
662 | O=S(=O)(c1cccnc1)N1CCCCC1c1nncn1CC1CC1 (centres undefined)
642 | CCCNC(=O)N1CCC(c2noc(-c3ccncc3)n2)C1 (centres undefined)
860 | O=C(COc1ccccc1F)NCC(O)(c1ccccc1)C(F)(F)F (centres undefined)
1020 | O=C(Nc1cnc(N2CCCCC2)nc1)c1ccc(Cl)s1

RP-LC retention time [s] | Compound
681 | CNC(=O)C1CCCN(c2nc3ncn(CC(=O)NCCc4ccc(Cl)cc4)c(=O)c3s2)C1 (centres undefined)
879 | CCOc1ccc(-n2ccn3cc(-c4ccc(C)cc4)nc3c2=O)cc1
553 | OC[C@@H]1CN(C2CCCC2)C[C@H]1c1nc(-c2ccncc2)no1
718 | CCCC(=O)NCCn1c(=O)n(Cc2ccccc2)c2cccnc21
559 | CN(C)c1ccc(CNC(=O)C2CCN(c3cc(N4CCCCC4)ncn3)CC2)cc1
555 | O=C(c1cn2ccccc2n1)N1CCN(Cc2cccc(F)c2)CC1
846 | Cc1cc(C)cc(NC(=O)N2CCC(n3cnc4cc(F)ccc4c3=O)CC2)c1
1070 | COc1ccccc1-c1nc(Cn2c(=O)c3c(C)cc(C)nc3n(C)c2=O)c(C)o1
598 | O=C(CNC(=O)c1ccccc1)Nc1nc2ccccc2[nH]1
651 | COc1ccc(CNC(=O)Nc2c(-c3cccc(C)c3)nc3ccccn23)cc1
1190 | CCSc1nnc(NC(=O)c2nnn(-c3nc4c(s3)CCCC4)c2C)s1
937 | COc1cc(Cc2nc(-c3cccc(-c4ccn[nH]4)c3)no2)cc(OC)c1
1110 | Cc1ccc(-n2nc(N3CCCC(C(=O)NC4CCCCCCC4)C3)ccc2=O)cc1Cl (centres undefined)
739 | Cc1ccc(NC(=O)Cn2cnc3nc(N4CCCC(C(=O)NC(C)C)C4)sc3c2=O)cc1F (centres undefined)
572 | CN1CCN(CCCNC(=O)CN2C(=O)C3CCCCN3c3ccc(C(=O)N(C)C)cc32)CC1 (centres undefined)
834 | Cc1cccc(C)c1OCC(O)Cn1c(C2CC(=O)N(Cc3ccccc3)C2)nc2ccccc21 (centres undefined)
730 | CCCNC(=O)c1nc2ccccn2c1-c1ccc(F)cc1
703 | Cc1cc(C)cc(NC(=O)Cn2nc3n(c2=O)CCCCC3)c1
683 | COc1ccc(NC(=O)C2CCN(c3cnc4nc(C)c(C)nc4c3)CC2)c(C)c1
604 | O=C(NCCc1ccccc1)N(C1CCOCC1)C1CCN(Cc2cccnc2)CC1

Compound | RP-LC retention time [s]
O=C(Cn1c(=O)oc2ccccc21)N1CC2CC(C1)c1cccc(=O)n1C2 (centres undefined) | 588
COc1ccc(CC(=O)N2CCC3(C2)C(=O)N(C)c2ccc(OC)cc23)c(Cl)c1 (centres undefined) | 825
COc1ccc2c(c1)C1(CCN(C(=O)c3ccc(Cl)cc3)C1)C(=O)N2 (centres undefined) | 767
